Measurements as given in PMC9269301, “Phytochemical Analysis, Antioxidant, Antimicrobial, and Cytotoxic Activity of Different Extracts of Xanthoparmelia stenophylla Lichen from Stara Planina, Serbia” (Plants, 2022).

Experiments:
[1] = tested on: S. cerevisiae (isolate); assay: Microdilution with resazurin, antifungal; format: cell-based, Saccharomyces cerevisiae; conditions: extracts and usnic acid
Method: (§1) The tested methanol, acetone, and n-hexane extracts, as well as the component (usnic acid) of X. stenophylla, were dissolved in 10% dimethyl sulfoxide (DMSO) and then diluted into the nutrient liquid medium. DMSO was obtained from Acros Organics (Fair Lawn, NJ, USA). Resazurin was obtained from Alfa Aesar GmbH & Co. (KG, Karlsruhe, Germany).
(§2) The antimicrobial activity of the extracts and components was tested against 19 microorganisms. The experiment involved 15 strains of bacteria (i.e., 6 standard strains: Staphylococcus aureus ATCC 6538, Bacillus subtilis ATCC 6633, Proteus mirabilis ATCC 12453, Pseudomonas aeruginosa ATCC 27853, Klebsiella pneumoniae ATCC 70063, and Escherichia coli ATCC 25922; 9 isolates: Staphylococcus aureus, Escherichia coli, Salmonella enterica, Salmonella Typhimurium, Proteus mirabilis, Klebsiella pneumoniae, Pseudomonas aeruginosa, Bacillus subtilis, and Bacillus cereus). In addition, four fungal strains (i.e., two standard strains: Candida albicans ATCC 10231 and Aspergillus niger ATCC 16888; two isolates: Saccharomyces cerevisiae and Candida albicans) were tested. All isolates were a generous gift from the Institute of Public Health, Kragujevac. The other microorganisms were provided from the collection held by the Microbiology Laboratory Faculty of Science, University of Kragujevac.
(§3) The bacterial suspensions were prepared by the direct colony method. The turbidity of the initial suspension was adjusted using a densitometer (DEN-1, BioSan, Riga, Latvia). When adjusted to the turbidity of the 0.5 McFarland’s standard (Andrews, 2005) the bacteria suspension contained approximately 10^8 colony-forming units (CFU)/mL, and the suspension of yeast contained 10^6 CFU/mL; 1:100 dilutions of the initial suspension were additionally prepared in sterile 0.85% saline. The suspensions of fungal spores were prepared by gentle stripping of spores from slopes with growing mycelia. The resulting suspensions were 1:1000 diluted in sterile 0.85% saline.
Antimicrobial activity was tested by determining the minimum inhibitory concentrations (MICs) and minimum microbicidal concentrations (MBCs) using the microdilution plate method with resazurin [56]. The 96-well plates were prepared by dispensing 100 μL of Mueller–Hinton broth for bacteria and Sabouard broth for fungi into each well. A 10 μL aliquot from the stock solution of the tested extract or component was added to the first row of the plate. Then, two-fold serial dilutions were performed using a multichannel pipette. The obtained concentration range was from 10 to 0.08 mg/mL. The method is described in detail in [76]. […]
Minimum microbicidal concentrations were determined by plating 10 μL of samples from wells where no indicator color change or no mycelia growth was recorded on a nutrient agar medium. […]

[2] = tested on: A. niger ATCC 16888; assay: Microdilution with resazurin, antifungal; format: cell-based, Aspergillus niger; conditions: extracts and usnic acid
Method: as §1, §2, §3
Antimicrobial activity was tested by determining the minimum inhibitory concentrations (MICs) and minimum microbicidal concentrations (MBCs) using the microdilution plate method with resazurin [56]. The 96-well plates were prepared by dispensing 100 μL of Mueller–Hinton broth for bacteria and Sabouard broth for fungi into each well. A 10 μL aliquot from the stock solution of the tested extract or component was added to the first row of the plate. Then, two-fold serial dilutions were performed using a multichannel pipette. The obtained concentration range was from 10 to 0.08 mg/mL. The method is described in detail in [76].
Each test included growth control and sterility control.
Minimum microbicidal concentrations were determined by plating 10 μL of samples from wells where no indicator color change or no mycelia growth was recorded on a nutrient agar medium. At the end of the incubation period, the lowest concentration with no growth (no colony) was defined as the minimum microbicidal concentration.

[3] = tested on: P. aeruginosa biofilm; assay: Biofilm metabolic activity by resazurin; format: cell-based, Pseudomonas aeruginosa; conditions: Figure 3
Method: (§4) Resazurin (7-hydroxy-3H-phenoxazin-3-one-10-oxide) is a viability dye used to assess the metabolic activity of biofilms. After incubation at 37 °C/48 h, a volume of 10 µL of resazurin indicator solution was added to each well. Plates were incubated in the dark for 3 h at 37 °C. The OD was measured at 590 nm using an enzyme-linked immunosorbent assay (ELISA) plate reader. In addition, the color change from purple to pink indicated the metabolic activity of the formed biofilm.

[4] = tested on: S. aureus ATCC 6538 biofilm; assay: Biofilm metabolic activity by resazurin; format: cell-based, Staphylococcus aureus; conditions: at some concentrations, Figure 4
Method: as §4

[5] = tested on: MRC-5 cells (nontransformed human lung fibroblast); assay: MTT assay; format: cell-based
[6] = tested on: HeLa cells (cervical adenocarcinoma); assay: MTT assay; format: cell-based, human; conditions: HeLa
[7] = tested on: HCT 116 cells (colon cancer); assay: MTT assay; format: cell-based, human

Question: What does the source list for usnic acid?
Answer: MFC [1]: 10000 µg/mL; MIC [1]: 5000 µg/mL; MFC [2]: <10000 µg/mL; MIC [2]: 10000 µg/mL; Metabolic activity of biofilm compared to the growth control [3]: higher; Metabolic activity of biofilm compared to the growth control [4]: lower; GI50 (50% growth inhibition) ([5]; MRC-5, 24 h): 42.97 ± 1.56 µg/mL; IC50 ([5]; MRC-5, 24 h): 66.18 ± 1.72 µg/mL; TGI (total growth inhibition) ([5]; MRC-5, 24 h): >100 µg/mL; GI50 (50% growth inhibition) ([5]; MRC-5, 48 h): 41.31 ± 0.56 µg/mL; IC50 ([5]; MRC-5, 48 h): 78.54 ± 0.87 µg/mL; TGI (total growth inhibition) ([5]; MRC-5, 48 h): 93.25 ± 0.08 µg/mL; GI50 (50% growth inhibition) ([5]; MRC-5, 72 h): 36.73 ± 0.92 µg/mL; IC50 ([5]; MRC-5, 72 h): 53.14 ± 1.04 µg/mL; TGI (total growth inhibition) ([5]; MRC-5, 72 h): 89.15 ± 0.25 µg/mL; GI50 (50% growth inhibition) ([6]; 24 h): >100 µg/mL; IC50 ([6]; 24 h): >100 µg/mL; TGI (total growth inhibition) ([6]; 24 h): >100 µg/mL; GI50 (50% growth inhibition) ([6]; 48 h): 99.16 ± 15.59 µg/mL; IC50 ([6]; 48 h): >100 µg/mL; TGI (total growth inhibition) ([6]; 48 h): >100 µg/mL; GI50 (50% growth inhibition) ([6]; 72 h): 64.28 ± 8.34 µg/mL; TGI (total growth inhibition) ([6]; 72 h): 86.91 ± 5.42 µg/mL; IC50 ([6]; 72 h, listed as UA): >100 µg/mL; GI50 (50% growth inhibition) ([7]; HCT 116, 24 h): 41.94 ± 3.12 µg/mL; IC50 ([7]; HCT 116, 24 h): >100 µg/mL; TGI (total growth inhibition) ([7]; HCT 116, 24 h): 79.12 ± 1.18 µg/mL; GI50 (50% growth inhibition) ([7]; HCT 116, 48 h): 27.21 ± 1.94 µg/mL; IC50 ([7]; HCT 116, 48 h): 83.99 ± 4.22 µg/mL; TGI (total growth inhibition) ([7]; HCT 116, 48 h): 63.58 ± 0.90 µg/mL; GI50 (50% growth inhibition) ([7]; HCT 116, 72 h): 15.87 ± 2.89 µg/mL; IC50 ([7]; HCT 116, 72 h): 23.79 ± 2.10 µg/mL; TGI (total growth inhibition) ([7]; HCT 116, 72 h): 64.91 ± 1.44 µg/mL
